Assay results as given in US10441689B2, “Methods and devices for three-dimensional printing or additive manufacturing of bioactive medical devices” (Louisiana Tech Research Corporation, priority 2014, dated 2019).

Assays:
E. Coli bacteria [1] = experiment: bacterial broth culture; type: cell-based; conditions: 1 mg amounts; for bacterial growth in broth culture, cooked powder: antibiotic powder heated to 220 Celsius for 5 minutes
Experimental: (§1) In another example embodiment (example 3), PLA pellets were run through a filament extruder with 2% gentamicine powder at 175 Celsius. The resulting filament was tested on bacterial plates using antibiotic susceptibility gel diffusion testing using E. Coli bacteria. A kill zone was observed around the filament. […] The filament is run through a 3D printer head nozzle at 220 Celsius and 300 um fibers are created. […] It should be noted that bacterial plates and cultures were carried out as close to Kirby-Bauer ISO standards as possible being that of 100 mm Mueller Hinton plates or Mueller Hinton broths. E. Coli colonies (Sigma Aldrich Vitroid Origin) used to seed plates were taken from 0.5 McFarland standard solutions in 50 uL quantities. Control plates and broths were used. Control PLA printed discs, beads, stents and catheters were used to compare against antibiotic filaments. Molded bone cement beads, discs and filaments made of Ortho-Right LV bone cements were used as comparison for no antibiotic and antibiotic controls.

E. Coli bacteria [2] = experiment: bacterial plates, antibiotic susceptibility gel diffusion testing; type: cell-based; conditions: 1 mg amounts; for kill zone on bacterial plate, cooked powder: antibiotic powder heated to 220 Celsius for 5 minutes
Experimental: as §1

NC[C@H]1O[C@H](O[C@H]2[C@H](O)[C@@H](O[C@H]3O[C@H](CO)[C@@H](O)[C@H](N)[C@H]3O)[C@H](N)C[C@@H]2N)[C@H](N)C[C@@H]1O [Tobramycin]
bacterial growth in broth culture, cooked powder (E. Coli bacteria [1]): no bacterial growth
bacterial growth in broth culture, uncooked control powder (E. Coli bacteria [1]): no bacterial growth
kill zone on bacterial plate, cooked powder (E. Coli bacteria [2]): kill zones
kill zone on bacterial plate, uncooked control powder (E. Coli bacteria [2]): kill zones

Gentamicin
bacterial growth in broth culture, cooked powder (E. Coli bacteria [1]): no bacterial growth
bacterial growth in broth culture, uncooked control powder (E. Coli bacteria [1]): no bacterial growth
kill zone on bacterial plate, cooked powder (E. Coli bacteria [2]): kill zones
kill zone on bacterial plate, uncooked control powder (E. Coli bacteria [2]): kill zones
